Measurements from the NIST ThermoML archive (doi:10.1016/j.fluid.2015.07.017).
± gives the expanded uncertainty stated by the source.

Assays:
[1] = 293.15 K; 101.33 kPa; Liquid; Pycnometric method
[2] = Boiling temperature at pressure P; conditions: Liquid, Ebulliometric method (Recirculating still)
[3] = refractive index (Na D-line) (dimensionless); conditions: 298.15 K; 101.33 kPa; Liquid; Standard Abbe refractometry

mass density [1] | Boiling temperature at pressure P ([2]; 8.17 kPa) | Boiling temperature at pressure P ([2]; 12.41 kPa) | Boiling temperature at pressure P ([2]; 18.11 kPa) | Boiling temperature at pressure P ([2]; 26.67 kPa) | Boiling temperature at pressure P ([2]; 36.4 kPa) | Boiling temperature at pressure P ([2]; 44.6 kPa) | Boiling temperature at pressure P ([2]; 53.33 kPa) | Boiling temperature at pressure P ([2]; 59.35 kPa) | Boiling temperature at pressure P ([2]; 69.65 kPa) | Boiling temperature at pressure P ([2]; 79.9 kPa) | Boiling temperature at pressure P ([2]; 87.9 kPa) | Boiling temperature at pressure P ([2]; 94.9 kPa) | Boiling temperature at pressure P ([2]; 101.33 kPa) | Boiling temperature at pressure P ([2]; 112 kPa) | refractive index [3] | SMILES
841.4 ± 0.8 kg/m3 | 29.97 ± 0.11 °C | 38.00 ± 0.11 °C | 46.03 ± 0.1 °C | 54.81 ± 0.1 °C | 62.67 ± 0.1 °C | 68.11 ± 0.1 °C | 73.17 ± 0.1 °C | 76.2 ± 0.1 °C | 81.07 ± 0.1 °C | 85.2 ± 0.1 °C | 88.33 ± 0.1 °C | 90.82 ± 0.1 °C | 92.97 ± 0.1 °C | 96.14 ± 0.1 °C | 1.3757 ± 0.0007 | CCCOCOC [1-(methoxymethoxy)propane]
791.1 ± 0.7 kg/m3 |  |  |  |  |  |  |  |  |  |  |  |  | 64.71 ± 0.1 °C |  | 1.3269 ± 0.0007 | CO [methanol]
803.7 ± 0.7 kg/m3 |  |  |  |  |  |  |  |  |  |  |  |  | 97.20 ± 0.1 °C |  | 1.3836 ± 0.0007 | CCCO [propan-1-ol]
